Test results taken from ChEMBL document CHEMBL5257060, “Trust Your Gut: Strategies and Tactics for Intestinally Restricted Drugs” (ACS Med Chem Lett, 2023).

What was measured:
[1] = Apparent permeability in human Caco-2 cells; format: ADME, cell-based
[2] = Cmax in mouse colon at 10 mg/kg, po; format: ADME, organism-based; design: dose 10 mg/kg, route po
[3] = Efflux ratio of apparent permeability in human Caco-2 cells; format: ADME, cell-based
[4] = Cmax in mouse plasma at 10 mg/kg, po; format: ADME, organism-based; design: dose 10 mg/kg, route po
[5] = Apparent permeability across apical to basolateral side in human Caco-2 cells; format: ADME, cell-based
[6] = molecular target: T1, G-protein coupled bile acid receptor 1 (Mus musculus, UniProt Q80SS6); experiment: Inhibition of mouse TGR5
T1 sequence (Q80SS6 whole entry): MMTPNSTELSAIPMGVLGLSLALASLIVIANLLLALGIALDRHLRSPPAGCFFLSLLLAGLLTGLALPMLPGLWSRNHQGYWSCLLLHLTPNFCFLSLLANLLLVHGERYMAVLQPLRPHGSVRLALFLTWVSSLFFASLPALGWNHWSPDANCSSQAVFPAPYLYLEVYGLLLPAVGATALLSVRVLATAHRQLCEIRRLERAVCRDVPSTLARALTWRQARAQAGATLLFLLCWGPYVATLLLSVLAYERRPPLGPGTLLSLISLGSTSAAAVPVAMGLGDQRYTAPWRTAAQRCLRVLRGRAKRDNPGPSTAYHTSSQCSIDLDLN

[7] = Apparent permeability across apical to basolateral side in human Caco-2 cells by PAMPA assay; format: ADME, cell-based
[8] = Cmax in ICR mouse plasma at 150 mg/kg, po measured at 1 hr post dose; format: ADME, organism-based; design: time 1 hrs, dose 150 mg/kg, route po
Dipeptidyl peptidase 4 = Dipeptidyl peptidase 4 (Mus musculus, UniProt P28843); experiment: Inhibition of mouse DPP4
Sequence of Dipeptidyl peptidase 4 (P28843 whole entry): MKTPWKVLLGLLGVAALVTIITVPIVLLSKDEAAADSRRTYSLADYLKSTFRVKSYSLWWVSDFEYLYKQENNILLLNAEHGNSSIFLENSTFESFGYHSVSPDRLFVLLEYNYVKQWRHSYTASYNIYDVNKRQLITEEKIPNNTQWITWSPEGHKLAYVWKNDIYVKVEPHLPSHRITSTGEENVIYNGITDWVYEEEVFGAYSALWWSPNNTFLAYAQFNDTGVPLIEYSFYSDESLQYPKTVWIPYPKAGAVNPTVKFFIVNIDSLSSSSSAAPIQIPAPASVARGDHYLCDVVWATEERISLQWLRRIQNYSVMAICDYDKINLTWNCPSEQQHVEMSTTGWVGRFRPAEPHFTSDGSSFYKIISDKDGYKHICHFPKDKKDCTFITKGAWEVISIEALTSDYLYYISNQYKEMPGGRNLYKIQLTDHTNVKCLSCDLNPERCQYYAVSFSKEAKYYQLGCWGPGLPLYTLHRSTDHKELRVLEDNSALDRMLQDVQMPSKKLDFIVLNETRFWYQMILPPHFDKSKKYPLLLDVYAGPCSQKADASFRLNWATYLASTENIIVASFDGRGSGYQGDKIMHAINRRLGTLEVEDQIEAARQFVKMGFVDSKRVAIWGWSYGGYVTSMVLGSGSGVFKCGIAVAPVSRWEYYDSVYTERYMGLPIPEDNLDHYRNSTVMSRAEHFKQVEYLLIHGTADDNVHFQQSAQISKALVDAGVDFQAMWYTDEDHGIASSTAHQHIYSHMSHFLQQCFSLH

[9] = Drug recovery in feces of rats at 20 mg, po; format: ADME; settings: rat, faeces, read-out: Drug recovery
[10] = Cmax in mouse colon content at 10 mg/kg, po; format: ADME, organism-based; design: dose 10 mg/kg, route po
[11] = Cmax in rat plasma at 10 mg/kg, po; format: ADME, organism-based; design: dose 10 mg/kg, route po
[12] = Drug concentration in mouse plasma at 30 mg/kg, po measured for 2 hr; format: ADME, organism-based
[13] = Drug concentration in mouse intestine at 30 mg/kg, po measured for 2 hr; format: ADME, organism-based; settings: read-out: Ct
[14] = Cmax in rat at 30 mg/kg, po; format: ADME, organism-based; design: dose 30 mg/kg, route po; settings: in vivo
[15] = molecular target: T2, Sodium/hydrogen exchanger 3 (Homo sapiens, UniProt P48764); experiment: Inhibition of human NHE3
T2 sequence (P48764 whole entry): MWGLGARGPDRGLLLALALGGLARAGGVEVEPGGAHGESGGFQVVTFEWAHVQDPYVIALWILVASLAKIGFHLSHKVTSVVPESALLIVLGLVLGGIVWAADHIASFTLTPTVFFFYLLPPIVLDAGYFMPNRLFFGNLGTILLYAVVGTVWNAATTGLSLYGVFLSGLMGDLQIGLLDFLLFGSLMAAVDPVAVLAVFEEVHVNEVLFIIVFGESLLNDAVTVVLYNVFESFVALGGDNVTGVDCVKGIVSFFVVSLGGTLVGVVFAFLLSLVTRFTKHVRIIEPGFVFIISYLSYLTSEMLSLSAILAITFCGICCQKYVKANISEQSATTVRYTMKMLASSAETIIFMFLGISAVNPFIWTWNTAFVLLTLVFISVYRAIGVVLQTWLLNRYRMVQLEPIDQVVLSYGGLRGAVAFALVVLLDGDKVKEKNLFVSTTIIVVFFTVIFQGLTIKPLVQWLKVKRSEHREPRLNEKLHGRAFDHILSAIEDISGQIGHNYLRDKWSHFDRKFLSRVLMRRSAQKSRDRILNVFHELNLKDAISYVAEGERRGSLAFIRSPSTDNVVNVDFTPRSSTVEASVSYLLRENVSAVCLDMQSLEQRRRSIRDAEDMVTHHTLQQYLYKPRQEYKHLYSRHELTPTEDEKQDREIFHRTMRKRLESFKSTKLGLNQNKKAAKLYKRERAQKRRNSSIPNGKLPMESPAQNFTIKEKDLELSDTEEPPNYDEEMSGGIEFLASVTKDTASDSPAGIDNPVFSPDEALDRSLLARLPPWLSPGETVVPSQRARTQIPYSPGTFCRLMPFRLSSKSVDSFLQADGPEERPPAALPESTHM

[16] = Drug recovery in feces of rats at 30 mg/kg, po; format: ADME, organism-based; settings: rat, faeces, read-out: Drug recovery
[17] = Drug recovery in feces of mouse at 5 mg/kg, po; format: ADME, organism-based; settings: faeces, read-out: Drug recovery
[18] = AUC in mouse at 5 mg/kg, po; format: ADME, organism-based; design: dose 5 mg/kg, route po; settings: in vivo

`Cc1cc(Nc2cc3ncccc3c(NC3C[C@H]4CC[C@@H](C3)N4CCC#N)n2)n[nH]1` (some centres not stated) showed a Papp [1] of 1.17 ×10⁻⁶ cm/s, a Cmax [2] of 9.17 µM and an efflux ratio [3] of 32.5. For the same compound, the Cmax [4] was 0.003 µM.
Work on `CN(CC[N+](C)(C)C)C(=O)CCc1cc(Cl)c(Oc2ccsc2C(=O)N2CCN(C3CC3)c3ccccc32)cc1Cl.O=C([O-])C(F)(F)F` yielded a Papp A→B [5] of 0.06 ×10⁻⁶ cm/s.
For `CO[C@@H]1C[C@@H]2C[C@H](O)CC[C@]2(C)[C@H]2CC[C@]3(C)[C@@H]([C@H](C)CCC(=O)N(C)C[C@H](O)[C@@H](O)[C@H](O)[C@H](O)CO)CC[C@H]3[C@H]12`, the EC50 [6] was 62.3 nM.
For `CC#CCn1c(N2CCC[C@H](NC(=O)CCOCCOCCOCCOCCOCCOCCN(C)C(=O)CCc3cc(Cl)c(Oc4ccncc4C(=O)N4CCN(C5CC5)c5ccccc54)cc3Cl)C2)nc2c1c(=O)n(Cc1nc(C)c3ccccc3n1)c(=O)n2C`, the Papp A→B [7] was 0.03 ×10⁻⁶ cm/s, the EC50 [6] was 17 nM and the Cmax [8] was 101 ng/mL. The IC50 (Dipeptidyl peptidase 4) was 70000 nM.
For `CCCCC1(CCCC)CS(=O)(=O)c2ccc(N(C)C)cc2[C@@H](c2ccc(OCc3ccc(C[N+]45CCN(CC4)CC5)cc3)cc2)[C@H]1O` [MARALIXIBAT], the dose excreted [9] was 94%.
`Cc1cccc(Oc2cc(Oc3cccc(C)n3)cc(Oc3cccc(C)n3)c2)n1` [AMELENODOR] showed a Cmax [2] of 150000 ng/g, a Cmax [10] of 1e+07 ng/g and a Cmax [11] of 57 ng/mL.
Compound `Cc1cc(C)c(S(=O)(=O)N(CCc2cccc(Br)c2)Cc2ccc(-c3cccc(S(C)(=O)=O)c3)cc2)c(C)c1` has a concentration at 2 h [12] of 0.006 µM and a concentration at 2 h [13] of 30 µM.
`CN1Cc2c(Cl)cc(Cl)cc2[C@@H](c2cccc(S(=O)(=O)NCCOCCOCCNC(=O)NCCCCNC(=O)NCCOCCOCCNS(=O)(=O)c3cccc([C@@H]4CN(C)Cc5c(Cl)cc(Cl)cc54)c3)c2)C1` showed a Cmax [14] of under 0.5 ng/mL, an IC50 [15] of 0.5 nM and a dose excreted [16] of 92%.
`CO[C@@H]1CC[C@@]2(C)[C@H](CC(OS(=O)(=O)[O-])[C@@H]3[C@@H]2CC[C@]2(C)[C@@H]([C@H](C)CCc4nnn[nH]4)CC[C@@H]32)C1.[Na+]` (some centres not stated) gave a dose excreted [17] of 89%, a Papp A→B [5] of 0.4 ×10⁻⁶ cm/s and an AUC [18] of 4840 ng·h/mL.
